Laboratory results as given in patent US4956357A (priority 1984, dated 1990).
Values after ≈ are worked out from the molar mass of the structure shown.

Experiments:
human androgen receptor = system: human androgen receptor
Excerpt: It is also believed that an androgen-action,rather than an estrogen action, acts to prevent breast enlargement.

gynecomastia [1] = conditions: alcoholic solution applied to the skin; cited from earlier work
[2] = cited from earlier work
gynecomastia [3] = assay: Treatment of gynecomastia in pubertal boys (breast diameter and area); format: in vivo, human
Experimental: (§1) Four pubertal boys, ages 14-16 years with gynecomastia which had lasted for more than 16 months and who all had breast diameters of more than 4 cm were studied. Their breast diameters ranged from 4.0 to 7.3 cm and breast areas from 13.5 to 41.4 cm^2 with mean breast area (±SEM) 24.3±4.1 cm^2.
(§2) The patients were given 200 mg DHT-hep in sesame oil intramuscularly. […] Subsequent testing was at 2, 3 and 4 weeks, and then just prior to each dose of DHT-hep. […] In two boys, the dose of DHT-hep was increased to 400 mg. Treatment lasted 16 weeks. The patients were examined before each injection of DHT-hep and at two months and six months after therapy. Patients' unpaired, or when appropriate, paired tests were used to determine significant differences (p less than 0.05). Results were all expressed as mean±Standard Error.

[4] = Plasma DHT after intramuscular DHT-hep; format: in vivo, human
Experimental: as §1, §2

testosterone = assay: Plasma testosterone after DHT-hep; format: in vivo, human; conditions: for mean plasma testosterone: before 283.8±87.5
Experimental: as §1, §2

estradiol = assay: Plasma estradiol after DHT-hep; format: in vivo, human; conditions: for mean estradiol level: before 23.8±3.2
Experimental: as §1, §2

FSH [5] = assay: Plasma FSH after DHT-hep; format: in vivo, human; conditions: for mean plasma FSH: before 190.5±50.7
Experimental: as §1, §2

LH [6] = assay: Plasma LH after DHT-hep; format: in vivo, human
Experimental: as §1, §2

LH [7] = assay: 24-hour urinary LH; format: in vivo, human; conditions: after 1 week of treatment; before 13.0±1.3
Experimental: as §2

FSH [8] = assay: 24-hour urinary FSH; format: in vivo, human; conditions: after 1 week of treatment; before 8.4±0.8
Experimental: as §2

male external genitalia = assay: Use of DHT-hep as an androgen (development of male external genitalia); format: in vivo, human
Excerpt: DHT-hep was given to two patients for the purpose of stimulating development of the male external genitalia. One was a person with hypogonadotrophic hypogonadism. […] The second patient was a child in early puberty with qynecomastia.

human estrogen receptor = assay: Binding to estrogen receptor; conditions: heptanoate ester
Solubility in sesame oil = format: physicochemical; conditions: organic solvent or mixture, 37° C., limit of solubility
Experimental: (This was the limit of solubility of DHT-hep in sesame oil at 37° C. The warm sesame oil mixture was filtered in a laminar flow hood through a 0.20 micron filter into sterile injection vials. The vials were sealed, tested for sterility and pyroqens, and stored at room temperature.

gonadotropin = conditions: in vivo; cited from earlier work
gynecomastia [9] = conditions: treatment of gynecomastia; cited from earlier work
[10] = another set of tests, 10 adolescent patients
[11] = subject four, 200 mg every 3 wks, 2 mo. post treatment
[12] = subject one, 400 mg every 3 wks, 2 mo. post treatment
[13] = subject three, 200 mg every 2 wks, 2 mo. post treatment
[14] = subject two, 400 mg every 3 wks, 2 mo. post treatment
[15] = child in early puberty with gynecomastia, 4 months
[16] = injections every two to three weeks
[17] = mean ± SE, two months after therapy
[18] = person, 200 mg/month i.m., 6 months

## C[C@]12CCC(=O)C[C@@H]1CC[C@@H]1[C@@H]2CC[C@]2(C)[C@@H](O)CC[C@@H]12 [DHT, dihydrotestosterone]
Human androgen receptor
  binding to human androgen receptor: high affinity
Gynecomastia [1]
  plasma DHT levels (systemic absorption): elevations in its plasma levels
[2]; oral
  oral stability: destroyed before reaching the circulatory system
[2]; parenteral
  half-life: very short half-life

## CCCCCCC(=O)O[C@H]1CC[C@H]2[C@@H]3CC[C@H]4CC(=O)CC[C@]4(C)[C@H]3CC[C@]12C [DHT-hep, dihydrotestosterone heptanoate]
Gynecomastia [3]; [10]
  breast size change: significant reduction in breast size
Gynecomastia [3]; intramuscular injections, four adolescent boys
  regression of breast tissue: regression of breast tissue in all four adolescent boys
Gynecomastia [3]; mean ± SE, four boys, after 16 weeks of treatment, before 24.3±4.1, p less than 0.002
  mean breast area: 7.0±1.5 cm^2
Gynecomastia [3]; patient four, followed for nine months
  increase in breast size on follow-up: no increase in breast size
Gynecomastia [3]; range of four boys, 16 weeks
  decrease in breast area: 66.6 to 77.5%
Gynecomastia [3]; six to nine months after therapy was discontinued
  regrowth of breast tissue: no regrowth of breast tissue
Gynecomastia [3]; [11]
  % Decrease in Breast Area: 70.1%
  Breast Area: 4.0 cm^2
  Breast Diameter: 2.3 cm
Gynecomastia [3]; subject four, 200 mg every 3 wks, after 16 wks treatment
  % Decrease in Breast Area: 70.1%
Gynecomastia [3]; subject four, 200 mg every 3 wks, after 16 wks treatment, before 4.0
  Breast Diameter: 2.3 cm
Gynecomastia [3]; subject four, 200 mg every 3 wks, after 16 wks treatment, before 13.5
  Breast Area: 4.0 cm^2
Gynecomastia [3]; [12]
  % Decrease in Breast Area: 75.5%
  Breast Area: 6.0 cm^2
  Breast Diameter: 2.6 cm
Gynecomastia [3]; subject one, 400 mg every 3 wks, after 16 wks treatment
  % Decrease in Breast Area: 75.2%
Gynecomastia [3]; subject one, 400 mg every 3 wks, after 16 wks treatment, before 5.6
  Breast Diameter: 2.7 cm
Gynecomastia [3]; subject one, 400 mg every 3 wks, after 16 wks treatment, before 24.6
  Breast Area: 6.1 cm^2
Gynecomastia [3]; [13]
  % Decrease in Breast Area: 77.5%
  Breast Area: 4.0 cm^2
  Breast Diameter: 2.3 cm
Gynecomastia [3]; subject three, 200 mg every 2 wks, after 16 wks treatment
  % Decrease in Breast Area: 77.5%
Gynecomastia [3]; subject three, 200 mg every 2 wks, after 16 wks treatment, before 4.8
  Breast Diameter: 2.3 cm
Gynecomastia [3]; subject three, 200 mg every 2 wks, after 16 wks treatment, before 17.7
  Breast Area: 4.0 cm^2
Gynecomastia [3]; [14]
  % Decrease in Breast Area: 69.9%
  Breast Area: 12.6 cm^2
  Breast Diameter: 3.3 cm
Gynecomastia [3]; subject two, 400 mg every 3 wks, after 16 wks treatment
  % Decrease in Breast Area: 66.6%
Gynecomastia [3]; subject two, 400 mg every 3 wks, after 16 wks treatment, before 7.3
  Breast Diameter: 4.2 cm
Gynecomastia [3]; subject two, 400 mg every 3 wks, after 16 wks treatment, before 41.4
  Breast Area: 13.9 cm^2
Gynecomastia [3]; two and six months after therapy was discontinued
  regrowth of breast tissue: No regrowth of breast tissue occurred in any subject
[4]; injection, general statement
  DHT levels: elevation
[4]; one week after injection of 200 mg DHT-hep
  increase in plasma DHT: 5-8 fold
testosterone; DHT-hep i.m., four boys
  plasma testosterone change: statistically significant decreases
testosterone; [10]
  plasma testosterone change: reduction
testosterone; [15]
  plasma testosterone: suppressed
testosterone; injection, general statement
  Testosterone: suppression
testosterone; [16]
  maintenance of testosterone suppression: maintained
testosterone; mean ± SE, 16 weeks
  mean plasma testosterone: 33.8 ± 3.2 ng/dL
testosterone; [17]
  plasma testosterone: 214.9 ± 34.8 ng/dL
testosterone; mean ± SE, two weeks
  mean plasma testosterone: 29.5 ± 3.3 ng/dL
testosterone; post injection
  time of rebound of testosterone to pretreatment levels: four
testosterone; post injection, all subjects
  time of maximal suppression of testosterone: two
testosterone; [11]
  Testosterone: 297 ng/dL
testosterone; subject four, 200 mg every 3 wks, after 16 wks treatment, before 517
  Testosterone: 40 ng/dL
testosterone; [12]
  Testosterone: 178 ng/dL
testosterone; subject one, 400 mg every 3 wks, after 16 wks treatment, before 129
  Testosterone: < 25 ng/dL
testosterone; [13]
  Testosterone: 244 ng/dL
testosterone; subject three, 200 mg every 2 wks, after 16 wks treatment, before 317
  Testosterone: 34 ng/dL
testosterone; [14]
  Testosterone: 140 ng/dL
testosterone; subject two, 400 mg every 3 wks, after 16 wks treatment, before 174
  Testosterone: 36 ng/dL
estradiol; DHT-hep i.m., four boys
  plasma estradiol change: statistically significant decreases
estradiol; [10]
  plasma estradiol change: reduction
estradiol; injection, general statement
  Estradiol: suppression
estradiol; [16]
  maintenance of estradiol suppression: maintained
estradiol; mean ± SE, 16 weeks
  mean estradiol level: 12.8 ± 1.6 pg/mL
estradiol; [17]
  plasma estradiol: 18.8 ± 2.5 pg/mL
estradiol; mean ± SE, two weeks
  mean estradiol level: 10.8 ± 0.8 pg/mL
estradiol; post injection, all subjects
  time of maximal suppression of estradiol: two
estradiol; [11]
  Estradiol: 22 pg/mL
estradiol; subject four, 200 mg every 3 wks, after 16 wks treatment, before 30
  Estradiol: < 10 pg/mL
estradiol; [12]
  Estradiol: 12 pg/mL
estradiol; subject one, 400 mg every 3 wks, after 16 wks treatment, before 16
  Estradiol: < 10 pg/mL
estradiol; [13]
  Estradiol: 18 pg/mL
estradiol; subject three, 200 mg every 2 wks, after 16 wks treatment, before 28
  Estradiol: 15 pg/mL
estradiol; [14]
  Estradiol: 23 pg/mL
estradiol; subject two, 400 mg every 3 wks, after 16 wks treatment, before 21
  Estradiol: 16 pg/mL
estradiol; two of the four boys, LH and testosterone suppressed
  residual estradiol levels: significant estradiol levels persisted
estradiol; two subjects, 200 mg dose
  estradiol suppression at 200 mg: not adequately suppressed
FSH [5]; DHT-hep i.m., four boys
  plasma FSH change: statistically significant decreases
FSH [5]; [10]
  plasma FSH change: reduction
FSH [5]; injection, general statement
  FSH: suppression
FSH [5]; mean ± SE, 16 weeks
  mean plasma FSH: 40.3 ± 7.3 ng/mL
FSH [5]; [17]
  plasma FSH: 121.5 ± 17.4 ng/mL
FSH [5]; mean ± SE, two weeks
  mean plasma FSH: 58.8 ± 18.5 ng/mL
FSH [5]; [11]
  FSH: 150 ng/mL
FSH [5]; subject four, 200 mg every 3 wks, after 16 wks treatment, before 334
  FSH: < 27 ng/mL
FSH [5]; [12]
  FSH: 73 ng/mL
FSH [5]; subject one, 400 mg every 3 wks, after 16 wks treatment, before 96
  FSH: 34 ng/mL
FSH [5]; [13]
  FSH: 120 ng/mL
FSH [5]; subject three, 200 mg every 2 wks, after 16 wks treatment, before 175
  FSH: 61 ng/mL
FSH [5]; [14]
  FSH: 143 ng/mL
FSH [5]; subject two, 400 mg every 3 wks, after 16 wks treatment, before 157
  FSH: 39 ng/mL
LH [6]; [10]
  plasma LH change: reduction
LH [6]; [15]
  plasma LH: suppressed
LH [6]; injection, general statement
  LH: suppression
LH [6]; plasma LH low before treatment in three patients
  further suppression of plasma LH: not statistically significant
LH [6]; [11]
  LH: 14 ng/mL
LH [6]; subject four, 200 mg every 3 wks, after 16 wks treatment, before 25
  LH: < 11 ng/mL
LH [6]; [12]
  LH: < 11 ng/mL
LH [6]; subject one, 400 mg every 3 wks, after 16 wks treatment, before less than 11
  LH: < 11 ng/mL
LH [6]; [13]
  LH: 27 ng/mL
LH [6]; subject three, 200 mg every 2 wks, after 16 wks treatment, before less than 11
  LH: < 11 ng/mL
LH [6]; [14]
  LH: 19 ng/mL
LH [6]; subject two, 400 mg every 3 wks, after 16 wks treatment, before 15
  LH: < 11 ng/mL
LH [7]
  24-hour urinary LH: 7.4±3 IU/day
FSH [8]
  24-hour urinary FSH: 2.9±0.1 IU/day
Male external genitalia; [15]
  penile length change: penile length increased significantly
  pubic and auxiliary hair: pubic and auxiliary hair increased
Male external genitalia; general statement
  androgenic effects: enlargement of the male genitalia, growth of pubic hair, growth of facial hair, and increase in height and weight
Male external genitalia; [18]
  erections and ejaculations: erections and ejaculations were reported
  muscle mass: significant increase in muscle mass
  pubic hair: Pubic hair increased
Male external genitalia; person, hypogonadotrophic hypogonadism, 200 mg/month i.m., 6 months, from 1.5
  penile diameter: 2.5 cm
Male external genitalia; person, hypogonadotrophic hypogonadism, 200 mg/month i.m., 6 months, from 4 cm
  penile length: 8 cm
Human estrogen receptor
  binding to human estrogen receptor: not binding tightly
Solubility in sesame oil
  solubility: 190 mg/mL (≈ 472 mM)

## CCC(=O)O[C@H]1CC[C@H]2[C@@H]3CC[C@H]4CC(=O)CC[C@]4(C)[C@H]3CC[C@]12C [Dihydrotestosterone propionate]
gonadotropin
  duration of action: one-to three
  gonadotropin suppression: not effective in gonadotropin suppression

## C[C@]12CC[C@H]3[C@@H](CCC4=CC(=O)CC[C@@]43C)[C@@H]1CC[C@@H]2O [testosterone]
Gynecomastia [9]
  breast size: increased breast size
